Measurements from article PMC9487510, “A Novel Oral GyrB/ParE Dual Binding Inhibitor Effective against Multidrug-Resistant Neisseria gonorrhoeae and Other High-Threat Pathogens” (Antimicrobial Agents and Chemotherapy, 2022).
Values after ≈ are worked out from the molar mass of the structure shown. Read-outs that look alike come from different tables or passages of the source.

Test system: N. gonorrhoeae clinical isolates
Assay: MIC, agar dilution (CLSI)
Format: cell-based, Neisseria gonorrhoeae
Conditions: for MIC: read-out: MIC

C=CC1=C(C(=O)O)N2C(=O)[C@@H](NC(=O)/C(=N\OCC(=O)O)c3csc(N)n3)[C@H]2SC1 [Cfx, cefixime] showed an MIC range (96 clinical isolates) of 0.016 to 4 µg/mL, an MIC (Neisseria gonorrhoeae, strain CDC1 (GCREF2012 016)) of 0.125 µg/mL (≈ 0.276 µM) and an MIC (Neisseria gonorrhoeae, strain CDC2 (GCREF2012 045)) of 0.125 µg/mL (≈ 0.276 µM). It also gave an MIC (Neisseria gonorrhoeae, strain CDC3 (GCREF2013 013)) of 0.125 µg/mL (≈ 0.276 µM), an MIC (Neisseria gonorrhoeae, strain CDC4 (GCREF2013 030)) of 0.125 µg/mL (≈ 0.276 µM) and an MIC (Neisseria gonorrhoeae, strain CDC5 (GCREF2012 001)) of 0.125 µg/mL (≈ 0.276 µM). It also gave an MIC (Neisseria gonorrhoeae, strain CDC6 (GCREF2012 002)) of 0.25 µg/mL (≈ 0.551 µM), an MIC (Neisseria gonorrhoeae, strain CDC8 (GCREF2012 004)) of 0.125 µg/mL (≈ 0.276 µM) and an MIC (Neisseria gonorrhoeae, strain CDC9 (GCREF2012 005)) of 0.125 µg/mL (≈ 0.276 µM). It also gave an MIC (Neisseria gonorrhoeae, strain CDC10 (GCREF2012 006)) of 0.125 µg/mL (≈ 0.276 µM), an MIC (Neisseria gonorrhoeae, strain CDC11 (GCREF2012 007)) of 0.125 µg/mL (≈ 0.276 µM) and an MIC (Neisseria gonorrhoeae, strain CDC12 (GCREF2012 008)) of 0.25 µg/mL (≈ 0.551 µM). For the same compound, the MIC (Neisseria gonorrhoeae, strain CDC13 (GCREF2012 009)) was 0.063 µg/mL (≈ 0.139 µM), the MIC (Neisseria gonorrhoeae, strain CDC14 (GCREF2012 010)) was 0.25 µg/mL (≈ 0.551 µM) and the MIC (Neisseria gonorrhoeae, strain CDC15 (GCREF2012 011)) was 0.031 µg/mL (≈ 0.0684 µM). For the same compound, the MIC (Neisseria gonorrhoeae, strain CDC16 (GCREF2012 012)) was 4 µg/mL (≈ 8.82 µM), the MIC (Neisseria gonorrhoeae, strain CDC18 (GCREF2012 014)) was 0.063 µg/mL (≈ 0.139 µM) and the MIC (Neisseria gonorrhoeae, strain CDC19 (GCREF2012 015)) was 0.125 µg/mL (≈ 0.276 µM). It also gave an MIC (Neisseria gonorrhoeae, strain CDC20 (GCREF2012 017)) of 0.125 µg/mL (≈ 0.276 µM), an MIC (Neisseria gonorrhoeae, strain CDC21 (GCREF2012 018)) of 0.25 µg/mL (≈ 0.551 µM) and an MIC (Neisseria gonorrhoeae, strain CDC22 (GCREF2012 019)) of 0.031 µg/mL (≈ 0.0684 µM). For the same compound, the MIC (Neisseria gonorrhoeae, strain CDC23 (GCREF2012 020)) was 0.125 µg/mL (≈ 0.276 µM), the MIC (Neisseria gonorrhoeae, strain CDC24 (GCREF2012 021)) was 0.063 µg/mL (≈ 0.139 µM) and the MIC (Neisseria gonorrhoeae, strain CDC25 (GCREF2012 022)) was 0.25 µg/mL (≈ 0.551 µM). For the same compound, the MIC (Neisseria gonorrhoeae, strain CDC26 (GCREF2012 023)) was 0.063 µg/mL (≈ 0.139 µM), the MIC (Neisseria gonorrhoeae, strain CDC27 (GCREF2012 024)) was 0.063 µg/mL (≈ 0.139 µM) and the MIC (Neisseria gonorrhoeae, strain CDC28 (GCREF2012 025)) was 0.25 µg/mL (≈ 0.551 µM). The MIC (Neisseria gonorrhoeae, strain CDC29 (GCREF2012 026)) was 0.125 µg/mL (≈ 0.276 µM), the MIC (Neisseria gonorrhoeae, strain CDC30 (GCREF2012 027)) was 0.125 µg/mL (≈ 0.276 µM) and the MIC (Neisseria gonorrhoeae, strain CDC31 (GCREF2012 028)) was 0.25 µg/mL (≈ 0.551 µM). The MIC (Neisseria gonorrhoeae, strain CDC32 (GCREF2012 029)) was 0.125 µg/mL (≈ 0.276 µM), the MIC (Neisseria gonorrhoeae, strain CDC33 (GCREF2012 030)) was 0.5 µg/mL (≈ 1.1 µM) and the MIC (Neisseria gonorrhoeae, strain CDC34 (GCREF2012 031)) was 0.063 µg/mL (≈ 0.139 µM). It also gave an MIC (Neisseria gonorrhoeae, strain CDC35 (GCREF2012 032)) of 0.25 µg/mL (≈ 0.551 µM), an MIC (Neisseria gonorrhoeae, strain CDC36 (GCREF2012 033)) of 0.063 µg/mL (≈ 0.139 µM) and an MIC (Neisseria gonorrhoeae, strain CDC37 (GCREF2012 034)) of 0.125 µg/mL (≈ 0.276 µM). The MIC (Neisseria gonorrhoeae, strain CDC38 (GCREF2012 035)) was 0.063 µg/mL (≈ 0.139 µM), the MIC (Neisseria gonorrhoeae, strain CDC39 (GCREF2012 036)) was 0.25 µg/mL (≈ 0.551 µM) and the MIC (Neisseria gonorrhoeae, strain CDC40 (GCREF2012 037)) was 0.125 µg/mL (≈ 0.276 µM). The MIC (Neisseria gonorrhoeae, strain CDC41 (GCREF2012 038)) was 0.25 µg/mL (≈ 0.551 µM), the MIC (Neisseria gonorrhoeae, strain CDC42 (GCREF2012 039)) was 0.25 µg/mL (≈ 0.551 µM) and the MIC (Neisseria gonorrhoeae, strain CDC43 (GCREF2012 040)) was 0.25 µg/mL (≈ 0.551 µM). For the same compound, the MIC (Neisseria gonorrhoeae, strain CDC45 (GCREF2012 042)) was 0.25 µg/mL (≈ 0.551 µM), the MIC (Neisseria gonorrhoeae, strain CDC46 (GCREF2012 043)) was 0.125 µg/mL (≈ 0.276 µM) and the MIC (Neisseria gonorrhoeae, strain CDC47 (GCREF2012 044)) was 0.125 µg/mL (≈ 0.276 µM). For the same compound, the MIC (Neisseria gonorrhoeae, strain CDC48 (GCREF2012 046)) was 0.125 µg/mL (≈ 0.276 µM), the MIC (Neisseria gonorrhoeae, strain CDC49 (GCREF2012 047)) was 0.25 µg/mL (≈ 0.551 µM) and the MIC (Neisseria gonorrhoeae, strain CDC50 (GCREF2012 048)) was 0.25 µg/mL (≈ 0.551 µM). The MIC (Neisseria gonorrhoeae, strain CDC51 (GCREF2012 049)) was 0.125 µg/mL (≈ 0.276 µM), the MIC (Neisseria gonorrhoeae, strain CDC52 (GCREF2012 050)) was 0.25 µg/mL (≈ 0.551 µM) and the MIC (Neisseria gonorrhoeae, strain CDC53 (GCREF2012 051)) was 0.25 µg/mL (≈ 0.551 µM). It also gave an MIC (Neisseria gonorrhoeae, strain CDC54 (GCREF2012 052)) of 0.25 µg/mL (≈ 0.551 µM), an MIC (Neisseria gonorrhoeae, strain CDC55 (GCREF2013 001)) of 0.125 µg/mL (≈ 0.276 µM) and an MIC (Neisseria gonorrhoeae, strain CDC56 (GCREF2013 002)) of 0.25 µg/mL (≈ 0.551 µM). The MIC (Neisseria gonorrhoeae, strain CDC57 (GCREF2013 003)) was 0.125 µg/mL (≈ 0.276 µM), the MIC (Neisseria gonorrhoeae, strain CDC58 (GCREF2013 004)) was 0.25 µg/mL (≈ 0.551 µM) and the MIC (Neisseria gonorrhoeae, strain CDC59 (GCREF2013 044)) was 0.25 µg/mL (≈ 0.551 µM). The MIC (Neisseria gonorrhoeae, strain CDC60 (GCREF2013 005)) was 0.125 µg/mL (≈ 0.276 µM), the MIC (Neisseria gonorrhoeae, strain CDC61 (GCREF2013 006)) was 0.125 µg/mL (≈ 0.276 µM) and the MIC (Neisseria gonorrhoeae, strain CDC62 (GCREF2013 007)) was 0.25 µg/mL (≈ 0.551 µM). It also gave an MIC (Neisseria gonorrhoeae, strain CDC63 (GCREF2013 008)) of 0.125 µg/mL (≈ 0.276 µM), an MIC (Neisseria gonorrhoeae, strain CDC64 (GCREF2013 009)) of 0.125 µg/mL (≈ 0.276 µM) and an MIC (Neisseria gonorrhoeae, strain CDC65 (GCREF2013 010)) of 0.125 µg/mL (≈ 0.276 µM). For the same compound, the MIC (Neisseria gonorrhoeae, strain CDC66 (GCREF2013 011)) was 0.125 µg/mL (≈ 0.276 µM), the MIC (Neisseria gonorrhoeae, strain CDC67 (GCREF2013 014)) was 0.125 µg/mL (≈ 0.276 µM) and the MIC (Neisseria gonorrhoeae, strain CDC68 (GCREF2013 016)) was 0.063 µg/mL (≈ 0.139 µM). The MIC (Neisseria gonorrhoeae, strain CDC69 (GCREF2013 017)) was 0.063 µg/mL (≈ 0.139 µM), the MIC (Neisseria gonorrhoeae, strain CDC70 (GCREF2013 018)) was 0.125 µg/mL (≈ 0.276 µM) and the MIC (Neisseria gonorrhoeae, strain CDC71 (GCREF2013 019)) was 0.016 µg/mL (≈ 0.0353 µM). It also gave an MIC (Neisseria gonorrhoeae, strain CDC72 (GCREF2013 020)) of 0.25 µg/mL (≈ 0.551 µM), an MIC (Neisseria gonorrhoeae, strain CDC73 (GCREF2013 021)) of 0.125 µg/mL (≈ 0.276 µM) and an MIC (Neisseria gonorrhoeae, strain CDC74 (GCREF2013 022)) of 0.125 µg/mL (≈ 0.276 µM). For the same compound, the MIC (Neisseria gonorrhoeae, strain CDC75 (GCREF2013 023)) was 0.125 µg/mL (≈ 0.276 µM), the MIC (Neisseria gonorrhoeae, strain CDC76 (GCREF2013 024)) was 0.125 µg/mL (≈ 0.276 µM) and the MIC (Neisseria gonorrhoeae, strain CDC77 (GCREF2013 025)) was 0.125 µg/mL (≈ 0.276 µM). The MIC (Neisseria gonorrhoeae, strain CDC78 (GCREF2013 026)) was 0.063 µg/mL (≈ 0.139 µM), the MIC (Neisseria gonorrhoeae, strain CDC79 (GCREF2013 027)) was 0.125 µg/mL (≈ 0.276 µM) and the MIC (Neisseria gonorrhoeae, strain CDC80 (GCREF2013 028)) was 0.125 µg/mL (≈ 0.276 µM). It also gave an MIC (Neisseria gonorrhoeae, strain CDC81 (GCREF2013 029)) of 0.25 µg/mL (≈ 0.551 µM), an MIC (Neisseria gonorrhoeae, strain CDC82 (GCREF2013 031)) of 0.125 µg/mL (≈ 0.276 µM) and an MIC (Neisseria gonorrhoeae, strain CDC83 (GCREF2013 032)) of 0.125 µg/mL (≈ 0.276 µM). It also gave an MIC (Neisseria gonorrhoeae, strain CDC84 (GCREF2013 033)) of 0.125 µg/mL (≈ 0.276 µM), an MIC (Neisseria gonorrhoeae, strain CDC86 (GCREF2013 035)) of 0.125 µg/mL (≈ 0.276 µM) and an MIC (Neisseria gonorrhoeae, strain CDC87 (GCREF2013 036)) of 0.25 µg/mL (≈ 0.551 µM). For the same compound, the MIC (Neisseria gonorrhoeae, strain CDC88 (GCREF2013 037)) was 0.125 µg/mL (≈ 0.276 µM), the MIC (Neisseria gonorrhoeae, strain CDC89 (GCREF2013 038)) was 0.125 µg/mL (≈ 0.276 µM) and the MIC (Neisseria gonorrhoeae, strain CDC90 (GCREF2013 039)) was 0.125 µg/mL (≈ 0.276 µM). For the same compound, the MIC (Neisseria gonorrhoeae, strain CDC91 (GCREF2013 040)) was 4 µg/mL (≈ 8.82 µM), the MIC (Neisseria gonorrhoeae, strain CDC92 (GCREF2013 041)) was 0.125 µg/mL (≈ 0.276 µM) and the MIC (Neisseria gonorrhoeae, strain CDC93 (GCREF2013 042)) was 0.125 µg/mL (≈ 0.276 µM). The MIC (Neisseria gonorrhoeae, strain CDC94 (GCREF2013 043)) was 0.125 µg/mL (≈ 0.276 µM), the MIC (Neisseria gonorrhoeae, strain CDC95 (GCREF2013 045)) was 0.25 µg/mL (≈ 0.551 µM) and the MIC (Neisseria gonorrhoeae, strain CDC96 (GCREF2013 046)) was 0.125 µg/mL (≈ 0.276 µM). The MIC (Neisseria gonorrhoeae, strain CDC97 (GCREF2013 047)) was 0.125 µg/mL (≈ 0.276 µM), the MIC (Neisseria gonorrhoeae, strain CDC98 (GCREF2013 048)) was 0.125 µg/mL (≈ 0.276 µM) and the MIC (Neisseria gonorrhoeae, strain CDC99 (GCREF2013 012)) was 0.125 µg/mL (≈ 0.276 µM). It also gave an MIC (Neisseria gonorrhoeae, strain CDC100 (GCREF2013 015)) of 0.25 µg/mL (≈ 0.551 µM), an MIC50 (Neisseria gonorrhoeae, 96 clinical isolates, read-out: MIC50) of 0.125 µg/mL (≈ 0.276 µM) and an MIC90 (Neisseria gonorrhoeae, 96 clinical isolates, read-out: MIC90) of 0.25 µg/mL (≈ 0.551 µM).
